{
  "source": "patent US20250177439A1",
  "about": "“LOW DOSE PRE-MIX FEED FOR TRACE MINERAL SUPPLEMENTATION” (Chemlock Operating LLC d/b/a Chemlock Nutrition, priority 2023, published 2025)",
  "origin": "cited, not measured here",
  "settings": "105-140 ppm zinc compared to 132-177 pmm of zinc",
  "data": [
    {"substance": "Zinc chloride hydroxide monohydrate [zinc hydroxy chloride]", "values": [
      {"measurement": "skin strength", "result": "enhanced the skin strength"}
    ]}
  ]
}
